Reference: patent US9474763B2, “Compositions and methods for amelioration and prevention of drug-induced toxicity” (priority 2012, dated 2016)
Like-named read-outs stand apart in the source and are kept apart here.

Legend:
[1] = Body weight of fasted mice given APAP (weight ratio / difference between days); type: in vivo
Description: Table 9 presents the effect of each combination on body weight loss, as determined by the ratio of the mice body weight between Day 0 and Day 2.
Table 12 presents the effect of each combination on body weight loss, as determined by the ratio of the mice body weight between Day 0 and Day 2 and by the difference in the mice body weight between Day 1 (immediately after administration of APAP with the different combinations and before food was returned) and Day 2.
Table 18 presents the effect of each combination on body weight, as determined by the difference in the mice body weight between Day 1 (immediately after administration of APAP with the different combinations and before food was returned) and Day 2.
This combination was tested for its effect on toxicity induced by APAP using the procedure described in Example 1 above with several modifications, as described below. Mice were allocated into four groups of six mice each, as detailed in Table 19 below. Food was taken on the afternoon (18:00) of Day 0. Mice were orally administered APAP 15 hours later (9:00 next morning, Day 1) by gavage administration. NAC was administered PO with APAP. MSM+IB were administered 1.5 h later. Following another 1.5 h, PC was administered. Food was returned 3.5 h after APAP administration (Day 1). Weight was determined three times: on Day 0 before food was taken, after over-night fasting (Day 1, just before APAP administration) and before sacrifice (Day 2, 24 hours after APAP administration).

toxicity induced by APAP [2] = assay: Liver biopsy histology (H&E) 24 h after APAP administration; type: in vivo, mice
Procedure: In addition, liver biopsies were performed. For histopathology, livers from individual mice were fixed in 10% formaldehyde solution and kept at room temperature until use. The tissue blocks were then embedded in paraffin, […] sections were cut and stained with hematoxylin and eosin (H&E) for morphological examination. […] Improved liver architecture with no evidence for cellular damage and necrosis can be seen in all treated groups.

toxicity induced by APAP [3] = conditions: for effect on liver enzymes serum levels: Example 2, Tables 3 and 4, 0.1-0.4 mg/mouse with APAP 4 mg; for beneficial effect on acetaminophen-induced liver toxicity: mice, administered together with, or following, large dosage of acetaminophen
Procedure: IB was tested for its effect on toxicity induced by APAP in comparison to NAC using the following procedure: Mice were allocated into four groups of six mice each, as described in Table 1 below. The mice received sub-lethal hepatotoxic doses of APAP, causing liver damage equivalent to consumption of approximately 10 gr APAP (20 caplets of 500 mg) per 70 kg man.
Food was taken on the afternoon (18:00) of Day 0. Mice were orally administered APAP, APAP+IB or APAP+NAC 15 h hours later (9:00 next morning, Day 1) by gavage administration. A total of 350 μl were administered, containing the different components in the desired concentrations in PBS. Food was returned 2 h after APAP administration (Day 1). For all groups, mice were weighted daily, and blood samples were taken 24 h hours after APAP administration (Day 2). Serum levels of the liver enzymes aspartate aminotransferase (AST) and alanine aminotransferase (ALT) were measured using a Reflovet® Plus clinical chemistry analyzer (Roche Diagnostics, GmbH, Mannheim, Germany). Serum samples were diluted before the measurements, as needed.
The following combinations were tested using the same procedure described in Example 1 above, and compared to 4 mg APAP+3 or 3.5 mg NAC: […]
This combination was tested for its effect on toxicity induced by APAP using the procedure described in Example 1 above. […]
Mice were treated according to the procedure describe in Example 1 above.

[4] = system: ConA-activated splenocytes; assay: IFN-γ secretion by ConA-activated splenocytes from treated mice (ELISA); type: cell-based; conditions: FIG. 5; groups A, B, C, D of Table 24; 5 μg ConA, 20 h; p=NS
Procedure: After mice were sacrificed, spleens from five mice from each group were taken and splenocytes were isolated by the following procedure: Isolation of splenocytes: Spleens were stored in RPMI-1640 medium supplemented with FCS. Spleens were crushed through a 70-μm nylon cell strainer (Falcon) and centrifuged (1,250 rpm for 7 min.). Red blood cells were lysed in 1 ml of cold 155 mM ammonium chloride lysis buffer. Splenocytes were washed and resuspended in 1 ml of RPMI supplemented with FCS. The viability of cells as assessed by trypan blue exclusion exceeded 90%. Next, splenocytes (1×10^6 per mouse, per well, in duplicates) were moved into a 24 well plate containing RPMI-1640 supplemented with 10% FCS, 1% penicillin/streptomycin (P/S), 1% glutamine, 1% sodium pyruvate and 1% non-essential amino acid. […] After incubation cells from all wells were moved to Eppendorff tubes and centrifuged for 5 minutes. Then supernatants were collected and freezed in −80° C. until assayed for IFN-γ by ELISA. Cytokine determination: Levels of IFN-γ were determined by “sandwich” ELISA using commercial kit according to the manufacturer's instructions (Quantikine, R&D Systems, Minneapolis, Minn., USA).

[5] = Table 12, per mouse APAP 4 mg, NAC 3.5 mg, PC 0.9 mg after 3 h
[6] = Table 15, APAP 4 mg/mouse alone or + NAC 3.5 mg, PC 0.9 mg after 3 h
[7] = Table 15, APAP 4.6 mg/mouse alone or + NAC 3.5 mg, PC 0.9 mg after 3 h
[8] = Table 21, APAP 7 mg/mouse alone or + NAC 3.5 mg/mouse
[9] = Table 2, serum 24 h after APAP, PO, APAP 4 mg/mouse alone or + NAC 3 mg/mouse
[10] = Table 3, 24 h, PO, APAP 4 mg/mouse alone or + NAC 3 mg/mouse
[11] = Table 4, 24 h, PO, APAP 4 mg/mouse alone or + NAC 3.5 mg/mouse
[12] = Table 6, 24 h, PO, APAP 4 mg/mouse alone or + NAC 3.5 mg/mouse
[13] = Table 8, 24 h, PO, APAP 4 mg/mouse alone or + NAC 3 mg/mouse
[14] = Table 11, 24 h, PO, per mouse APAP 4 mg, NAC 3.5 mg, PC 0.9 mg after 3 h
[15] = Table 14, 24 h, PO, APAP 4 mg/mouse alone or + NAC 3.5 mg, PC 0.9 mg after 3 h
[16] = Table 14, 24 h, PO, APAP 4.6 mg/mouse alone or + NAC 3.5 mg, PC 0.9 mg after 3 h
[17] = Table 17, 24 h, PO, per mouse APAP 4 mg, NAC 3.5 mg, MSM 1.5 mg
[18] = Table 20, 24 h, PO, APAP 7 mg/mouse alone or + NAC 3.5 mg/mouse
[19] = Table 23, 24 h, PO, per mouse APAP 4 mg, MSM 0.15 mg, IB 0.1 mg
[20] = Table 27, 24 h, PO, per mouse APAP 4.6 mg, NAC/Cys/Met 3.5 mg, PC 0.9 mg, MSM 0.2 mg, IB 0.1 mg
[21] = Table 30, APAP 4.6 mg with NAC/Cys/Met 3.5 mg, MSM 0.1 mg + IB 0.1 mg after 1.5 h, PC 0.9 mg after 3 h
[22] = Table 33, 24 h, PO, per mouse APAP 4.6 mg, NAC/Cys/Met 3.5 mg

## CC(=O)Nc1ccc(O)cc1 [APAP, N-(4-hydroxyphenyl)acetamide]
[1]; Example 4, Table 9, APAP 4 mg/mouse only
  decrease in body weight during the two days of the experiment: 6%
[1]; Example 8, Table 28, APAP 4.6 mg only
  decrease in body weight during the two days of the experiment: more than 8%
[1]; Example 8, Table 31, APAP 4.6 mg only
  decrease in body weight during the two days of the experiment: more than 8%
[1]; Example 8, Table 34, APAP 4.6 mg only
  decrease in body weight during the two days of the experiment: more than 6%
[1]; Table 9, APAP 4 mg/mouse alone or + NAC 3 mg/mouse, PO
  Weight ratio Day 0-Day 2: 94.17%
[1]; [5]
  Weight difference Day 1 − Day 2: 1.17
  Weight ratio Day 1-Day 2: 105%
[1]; [6]
  Weight difference Day 1 − Day 2: 2.07
  Weight ratio Day 1-Day 2: 108%
[1]; [7]
  Weight difference Day 1 − Day 2: 1.02
  Weight ratio Day 1-Day 2: 104%
[1]; Table 18, per mouse APAP 4 mg, NAC 3.5 mg, MSM 1.5 mg
  Weight difference Day 1 − Day 2: 1.05
[1]; [8]
  Weight difference Day 1 − Day 2: −0.45
  Weight ratio Day 1-Day 2: 98%
[1]; Table 28, per mouse APAP 4.6 mg, NAC/Cys/Met 3.5 mg, PC 0.9 mg, MSM 0.2 mg, IB 0.1 mg
  Weight ratio Day 0-Day 2: 91.59%
[1]; Table 31, APAP 4.6 mg with NAC/Cys/Met 3.5 mg, MSM 0.1 mg + IB 0.1 mg after 1.5 h, PC 0.9 mg after 3 h
  Weight ratio Day 0-Day 2: 91.23%
[1]; Table 34, per mouse APAP 4.6 mg, NAC/Cys/Met 3.5 mg
  Weight ratio Day 0-Day 2: 93.26%
Toxicity induced by APAP [2]; FIG. 1, groups of Table 5, 24 h after APAP 4 mg/mouse
  histological liver sections: diffuse damage to hepatocytes
Toxicity induced by APAP [2]; FIG. 2, groups of Table 7, 24 h after APAP 4 mg/mouse
  histological liver sections: diffuse damage to hepatocytes
Toxicity induced by APAP [2]; FIG. 3, groups of Table 10, 24 h after APAP 4 mg/mouse
  histological liver sections: diffuse damage to hepatocytes
Toxicity induced by APAP [2]; FIG. 4, groups of Table 16, 24 h after APAP 4 mg/mouse
  histological liver sections: diffuse damage to hepatocytes
Toxicity induced by APAP [2]; FIG. 6, groups of Table 26, 24 h after APAP 4.6 mg/mouse
  histological liver sections: diffuse damage to hepatocytes
Toxicity induced by APAP [2]; FIG. 7, groups of Table 29, 24 h after APAP 4.6 mg/mouse
  histological liver sections: diffuse damage to hepatocytes
Toxicity induced by APAP [2]; FIG. 8, groups of Table 32, 24 h after APAP 4.6 mg/mouse
  histological liver sections: diffuse damage to hepatocytes
Toxicity induced by APAP [3]; [9]
  ALT (average ± std. dev.): 14,360 ± 4,370.52 IU/L
  AST (average ± std. dev.): 18,920.00 ± 12,192.04 IU/L
Toxicity induced by APAP [3]; [10]
  ALT (average ± std. dev.): 5,617.50 ± 1,832.77 IU/L
  AST (average ± std. dev.): 3,672.67 ± 1,965.99 IU/L
Toxicity induced by APAP [3]; [11]
  ALT (average ± std. dev.): 8,880.00 ± 2,624.31 IU/L
  AST (average ± std. dev.): 5,848.67 ± 1,993.43 IU/L
Toxicity induced by APAP [3]; [12]
  ALT (average ± std. dev.): 7,790.0 ± 2,175.9 IU/L
  AST (average ± std. dev.): 4,883.3 ± 1,549.4 IU/L
Toxicity induced by APAP [3]; [13]
  ALT (average ± std. dev.): 6,421.67 ± 2,914.38 IU/L
  AST (average ± std. dev.): 3,686.67 ± 2,168.08 IU/L
Toxicity induced by APAP [3]; [14]
  ALT (average ± std. dev.): 7,530.00 ± 2,339.06 IU/L
  AST (average ± std. dev.): 4,988.67 ± 878.44 IU/L
Toxicity induced by APAP [3]; [15]
  ALT (average ± std. dev.): 5,739.25 ± 2,536.44 IU/L
  AST (average ± std. dev.): 4,374.00 ± 2,384.21 IU/L
Toxicity induced by APAP [3]; [16]
  ALT (average ± std. dev.): 7,772.50 ± 1,771.00 IU/L
  AST (average ± std. dev.): 6,310.00 ± 2,127.07 IU/L
Toxicity induced by APAP [3]; [17]
  ALT (average ± std. dev.): 9,040 ± 3,472.64 IU/L
  AST (average ± std. dev.): 6,560 ± 2,618.34 IU/L
Toxicity induced by APAP [3]; [18]
  ALT (average ± std. dev.): 20,160.00 ± 9,678.28 IU/L
  AST (average ± std. dev.): 20,001.00 ± 11,998.16 IU/L
Toxicity induced by APAP [3]; [19]
  ALT (average ± std. dev.): 8,918.00 ± 2,955.74 IU/L
  AST (average ± std. dev.): 6,586.67 ± 4,204.58 IU/L
Toxicity induced by APAP [3]; Table 25, 24 h, PO, per mouse APAP 4 mg, MSM 0.25 mg, IB 0.1 mg
  AST (average ± std. dev.): 4,303.33 ± 2,163.30 IU/L
Toxicity induced by APAP [3]; [20]
  ALT (average ± std. dev.): 10285.00 ± 4435.22 IU/L
  AST (average ± std. dev.): 7796.00 ± 5000.46 IU/L
Toxicity induced by APAP [3]; [21]
  ALT (average ± std. dev.): 11210.83 ± 7589.19 IU/L
  AST (average ± std. dev.): 10577.33 ± 11375.63 IU/L
Toxicity induced by APAP [3]; [22]
  ALT (average ± std. dev.): 9002.50 ± 4211.03 IU/L
  AST (average ± std. dev.): 5684.00 ± 2307.64 IU/L
[4]
  IFN-γ levels secreted by ConA-activated splenocytes: 259 pg/mL

## COc1cc([C@H]2Oc3ccc([C@H]4Oc5cc(O)cc(O)c5C(=O)[C@@H]4O)cc3O[C@@H]2CO)ccc1O [IA, Isosilybin A]
Toxicity induced by APAP [3]
  effect on liver enzymes serum levels: ineffective in reducing liver enzymes serum levels
  beneficial effect on acetaminophen-induced liver toxicity: did not show a beneficial effect

## COc1cc([C@@H]2Oc3cc([C@H]4Oc5cc(O)cc(O)c5C(=O)[C@@H]4O)ccc3O[C@H]2CO)ccc1O [silybin B]
Toxicity induced by APAP [3]
  effect on liver enzymes serum levels: ineffective in reducing liver enzymes serum levels
  beneficial effect on acetaminophen-induced liver toxicity: did not show a beneficial effect
